In PubChem BioAssay (NCI) one finds TGI and GI50 data, which are given here for 17 compounds.

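These data come from cells grown in 96-well plates and exposed to compound for 48 hours at five concentrations. GI50 = concentration required for 50% inhibition of growth. At the TGI there is no net growth.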

Some test systems named below: KM12 colon; MDA-N; HT29 colon; COLO 205 colon; SK-MEL-5 melanoma; DU-145 prostate; NCI/ADR-RES ovarian; MDA-MB-435; NCI-H522 lung; A498 renal.
Assay in all cases: inhibition of tumour cell growth, NCI panel, 48 h

For `CC(=O)OC12c3ccccc3C(c3ccccc31)C1C(=O)N(N=C(C)C)C(=O)C12` (centres undefined), the TGI with KM12 colon, in the test on MDA-N, in the test on HT29 colon, in the test on COLO 205 colon, in the test on SK-MEL-5 melanoma and in the test on DU-145 prostate was above 100 µM in each case. Further, the TGI in the test on NCI/ADR-RES ovarian was above 100 µM.
As to `CC(=O)CCC1(C(=O)OCC(C)C)CCCC1=O` (centres undefined), the TGI in the test with KM12 colon, in the test with MDA-N, in the test on HT29 colon, in the test with COLO 205 colon, in the test on SK-MEL-5 melanoma and in the test with MDA-MB-435 was above 100 µM in each case. Also, the TGI with DU-145 prostate, with NCI-H522 lung and in the test with NCI/ADR-RES ovarian was above 100 µM throughout.
Turning to `Cc1cccc2c1nc1n2C(=O)c2ccccc2-1`, the TGI with KM12 colon, in the test on MDA-N, in the test on HT29 colon, in the test with COLO 205 colon, with SK-MEL-5 melanoma and with DU-145 prostate was above 100 µM in each case. Besides, the TGI in the test with NCI-H522 lung and in the test on NCI/ADR-RES ovarian was above 100 µM in each case.
On to `O=C(/C=C\c1ccccc1)Oc1ccc(/C=C2\CCC/C(=C\c3ccc(OC(=O)/C=C\c4ccccc4)cc3)C2=O)cc1`, for which the TGI in the test on KM12 colon, in the test with MDA-N, in the test with HT29 colon, with COLO 205 colon, with SK-MEL-5 melanoma and in the test with MDA-MB-435 was above 100 µM throughout. In addition, the TGI in the test on DU-145 prostate, with NCI-H522 lung and with NCI/ADR-RES ovarian was above 100 µM each time.
In the case of `COCOC1CCCC[C@@]1(OCCOCCO[C@@]1(c2ccccc2)CCCC[C@H]1OCOC)c1ccccc1` (some centres undefined), the TGI in the test with KM12 colon, in the test on HT29 colon, in the test with COLO 205 colon and in the test with NCI-H522 lung was above 100 µM throughout.
Take `O=C(OCCN=c1c2ccccc2ccc2ccccc12)c1cc([N+](=O)[O-])cc([N+](=O)[O-])c1`: the TGI in the test on KM12 colon, with MDA-N, in the test with HT29 colon, with COLO 205 colon, in the test on SK-MEL-5 melanoma and with MDA-MB-435 was above 100 µM each time. In addition, the TGI in the test on DU-145 prostate and in the test on NCI/ADR-RES ovarian was above 100 µM each time.
On to `COc1ccc(/C(C=O)=C(\Cl)c2ccc(OC)c(OC)c2)cc1`, for which the TGI was above 100 µM in the test with HT29 colon, above 100 µM with SK-MEL-5 melanoma, 33.5 µM in the test with NCI-H522 lung and above 100 µM in the test on A498 renal.
Turning to `NC1CCC2(O)c3ccccc3C2C1` (centres undefined), the TGI with KM12 colon, in the test on HT29 colon, with COLO 205 colon, in the test on SK-MEL-5 melanoma and in the test on NCI-H522 lung was above 100 µM in each case.
For the compound `C=CCOC(C)(C)C1=CCC(C)CC1` (centres undefined), the TGI in the test on KM12 colon, with MDA-N, in the test with HT29 colon, in the test with COLO 205 colon, with SK-MEL-5 melanoma and with MDA-MB-435 was above 100 µM throughout. For the same compound, the TGI in the test on DU-145 prostate, with NCI-H522 lung and in the test on A498 renal was above 100 µM in each case.
Take `O=C(O)C1CCC(=O)N1C(=O)COc1cc(Cl)c(Cl)cc1Cl` (centres undefined): the TGI in the test with KM12 colon, with HT29 colon, in the test on COLO 205 colon, with SK-MEL-5 melanoma, in the test on NCI-H522 lung and in the test on A498 renal was above 100 µM throughout.
As for `CCOC(=O)C1C(c2ccc(Br)cc2)N(Cc2ccccc2)C(c2ccc(Br)cc2)C(C(=O)OC)S1(=O)=O` (centres undefined), the TGI in the test on KM12 colon, with HT29 colon, with COLO 205 colon and with NCI-H522 lung was above 100 µM throughout.
`O=c1c2[nH]cnc2n(-c2ccccc2)c(=S)n1-c1ccccc1`: the TGI in the test on KM12 colon, in the test on HT29 colon, in the test on COLO 205 colon, in the test on SK-MEL-5 melanoma, with MDA-MB-435 and with DU-145 prostate was above 100 µM throughout. Moreover, the TGI in the test with NCI-H522 lung, in the test on A498 renal and in the test on NCI/ADR-RES ovarian was above 100 µM throughout.
For `COC(=O)c1c(O)ccc2c1c1c(n2Cc2ccc(OC)cc2)C(=O)c2ccccc2C1`, the TGI in the test with KM12 colon is above 100 µM; with MDA-N it was above 100 µM; in the test with HT29 colon, 47.4 µM; with COLO 205 colon it was 34.4 µM; in the test on SK-MEL-5 melanoma it was above 100 µM; in the test on MDA-MB-435, above 100 µM. In addition, the TGI with DU-145 prostate, in the test with A498 renal and in the test with NCI/ADR-RES ovarian was above 100 µM each time.
As to `CC(C)(C)C(=O)c1c(O)c2ccccc2c2ccccc2c1=O`, the TGI in the test with KM12 colon, with MDA-N, in the test with HT29 colon, in the test with COLO 205 colon, in the test with SK-MEL-5 melanoma and with MDA-MB-435 was above 100 µM in each case. The TGI with DU-145 prostate, in the test with NCI-H522 lung and in the test with A498 renal was above 100 µM each time.
For the compound `Cc1ccc(S(=O)(=O)NC(=O)Nc2ccc(C(=O)O)cc2)cc1`, the TGI in the test with KM12 colon, with MDA-N, in the test with HT29 colon, in the test on COLO 205 colon, in the test on SK-MEL-5 melanoma and in the test on DU-145 prostate was above 100 µM each time. The TGI in the test with NCI-H522 lung and in the test on NCI/ADR-RES ovarian was above 100 µM each time.
Regarding `COc1cc(C2c3cc4c(cc3[C@@H](Nc3ccc(F)cc3)C3COC[C@H]23)OCO4)cc(OC)c1O` (some centres undefined), the TGI was above 25 µM in the test with KM12 colon; above 25 µM with MDA-N; 8.82 µM in the test with HT29 colon; above 25 µM in the test on COLO 205 colon; above 25 µM with SK-MEL-5 melanoma; above 25 µM in the test on MDA-MB-435. Moreover, the TGI in the test with NCI-H522 lung and with NCI/ADR-RES ovarian was above 25 µM throughout.
As for `N#Cc1cc(F)cc(Oc2ccc(S(=O)(=O)C(F)F)c3c2CC(F)(F)[C@H]3O)c1`, the GI50 with KM12 colon is 44.8 µM; in the test on HT29 colon, 39.3 µM; with COLO 205 colon, 25.6 µM; with SK-MEL-5 melanoma, 17.6 µM; in the test with MDA-MB-435, 37.7 µM; in the test on DU-145 prostate it was 36.1 µM. Also, the GI50 is 19.1 µM in the test on NCI-H522 lung, 20.6 µM in the test with A498 renal and 26.4 µM in the test on NCI/ADR-RES ovarian. Also, the TGI with KM12 colon was above 100 µM; in the test with HT29 colon it was above 100 µM; with COLO 205 colon it was 63.1 µM; in the test with SK-MEL-5 melanoma, 34.7 µM; with MDA-MB-435, above 100 µM; with DU-145 prostate, above 100 µM. Moreover, the TGI was 88.7 µM with NCI-H522 lung, 73.6 µM in the test on A498 renal and above 100 µM with NCI/ADR-RES ovarian.
